Results from patent publication US20240294572A1, “Antimicrobial Peptides” (priority 2021, published 2024).
Values after ≈ are worked out from the molar mass of the structure shown. No end group written: not given here.

Assays:
[1] = target: T1, Apolipoprotein A-I (Q00623) (Mus musculus, UniProt Q00623); experiment: Mass spectrometry of mouse plasma proteins bound to bead-immobilized peptide; format: binding; conditions: peptide on beads, 5% mouse plasma, 18 hours
T1 construct: incubated with 5% mouse plasma; from tissue; host or cells: mouse plasma (5%)
T1 sequence (Q00623 19-264): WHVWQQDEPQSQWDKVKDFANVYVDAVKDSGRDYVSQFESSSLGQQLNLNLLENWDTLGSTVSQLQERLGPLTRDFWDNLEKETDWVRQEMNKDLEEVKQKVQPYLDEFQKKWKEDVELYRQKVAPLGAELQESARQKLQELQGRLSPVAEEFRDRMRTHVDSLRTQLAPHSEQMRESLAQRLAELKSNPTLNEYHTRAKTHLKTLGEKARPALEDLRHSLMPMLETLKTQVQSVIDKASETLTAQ
Procedure: (§1) Dynabeads M-370 amine (2×10^9 beads/mL, 50 μL; Thermo Fisher Scientific) were washed 3 times in sterile PBS (1 mL; GIBCO) and reacted with a bifunctional SM(PEG)4 cross-linker (5 mg/mL in DMSO) containing N-hydroxysuccinimide (NHS) ester and maleimide functional groups. A stable covalent bond between the amino group of beads and the NHS ester of the cross-linker was formed in PBS at pH 7.2 at room temperature for 24 hours with shaking at 80 rpm. The beads were then washed six times with PBS to remove nonreacted cross-linker. Next, peptide C10-KR8 (with a cysteine at the N-terminus) at 5 mg/mL was reacted with the free maleimide group in PBS for 24 hours at room temperature with shaking at 80 rpm. Another round of washing was conducted to remove the nonreacted peptides. Both the L-and D-forms of the peptide were coupled in the same manner. A portion of the beads without peptide coupling was saved as a control.
(§2) For serum binding experiments, the beads were resuspended in 500 μL of PBS; 200-μL aliquots of the coated and control dynabead were incubated with 5% mouse plasma for 18 hours at 37° C. After binding, the beads were washed six times with PBS to remove unbound proteins. Finally, the beads were suspended in 50 μL of PBS for mass spectrophotometric analysis to identify peptide-binding partners.
(§3) The samples were reduced by 10 mM dithiothreitol (DTT) and incubated for 30 minutes at 56° C. and back to room temperature. A final concentration of 50 mM iodoacetamide was added to alkylate free cysteines followed by further incubation for 20 min in the dark. Bound proteins were enzymatically digested by trypsin (4 μL of 0.5 μg/mL) overnight. A 60 […] portion was transferred to a new Eppendorf® tube and dried for 2 hours. The samples were then dissolved in 20 μL of 2% acetonitrile with 0.1% formic acid before being loaded to Q-tip columns (Pepclean, C18 spin column). Column was activated by pipetting in and out (4× times), 10 μL of 70% acetonitrile with 0.1% formic acid, and equilibrating with the same volume of 2% acetonitrile with 0.1% formic acid. Binding of the samples was done by mixing more than 10 × times, followed by washing in the same buffer (2% acetonitrile with 0.1% formic acid). The bound peptides were then eluted with 20 μL of 70% acetonitrile with 0.1% formic acid. Samples were subjected to LC-MS analysis after being suspended in the desired buffer.
(§4) Extracted peptides were resuspended in 2% acetonitrile (ACN) and 0.1% formic acid (FA) and loaded onto trap column Acclaim™ PepMap™ 100 75 μm×2 cm C18 LC Columns (Thermo Scientific) at a flow rate of 4 μL/minute. These were then separated with a Thermo RSLC UltiMate™ 3000 on a Thermo Easy-Spray PepMap™ M RSLC C18 75 μm×50 cm C-18 2 μm column (Thermo Scientific) with a step gradient of 4-25% solvent B (0.1% FA in 80% ACN) from 10 to 37 minutes and 25-45% solvent B for 37-46 minutes at 300 nL/min and 50° C. with a 70 minute total run time. Eluted peptides were analyzed by a Thermo Orbitrap Fusion™ Lumos™ Tribrid™ (Thermo Scientific) mass spectrometer in a data dependent acquisition mode. A survey full scan MS (from m/z 350-1800) was acquired in the orbitrap with a resolution of 120000. The AGC target for MS1 was set as 4×10^5 and the ion filling time set as 100 ms. The most intense ions with charge state 2-6 were isolated in 3 second cycle and fragmented using HCD fragmentation with 40% normalized collision energy and detected at a mass resolution of 30000 at 200 m/z. The AGC target for MS/MS was set as 5×10^4 and ion filling time set 60 ms dynamic exclusion was set for 30 seconds with a 10 ppm mass window. Protein identification was performed by searching MS/MS data against the Swiss-Prot mouse protein database. The search was set up for full tryptic peptides with a maximum of two missed cleavage sites. Acetylation of protein N-terminus and oxidized methionine were included as variable modifications, and carbamidomethylation of cysteine was set as fixed modification. […]

[2] = target: T2, Apolipoprotein A-II (P09813) (Mus musculus, UniProt P09813); experiment: as above; format: binding; conditions: peptide on beads, 5% mouse plasma, 18 hours
T2 construct: incubated with 5% mouse plasma; from tissue; host or cells: mouse plasma (5%)
Procedure: as §1, §2, §3, §4

[3] = target: T3, Apolipoprotein A-IV (P06728) (Mus musculus, UniProt P06728); experiment: as above; format: binding; conditions: peptide on beads, 5% mouse plasma, 18 hours
T3 construct: incubated with 5% mouse plasma; from tissue; host or cells: mouse plasma (5%)
T3 sequence (P06728 21-395): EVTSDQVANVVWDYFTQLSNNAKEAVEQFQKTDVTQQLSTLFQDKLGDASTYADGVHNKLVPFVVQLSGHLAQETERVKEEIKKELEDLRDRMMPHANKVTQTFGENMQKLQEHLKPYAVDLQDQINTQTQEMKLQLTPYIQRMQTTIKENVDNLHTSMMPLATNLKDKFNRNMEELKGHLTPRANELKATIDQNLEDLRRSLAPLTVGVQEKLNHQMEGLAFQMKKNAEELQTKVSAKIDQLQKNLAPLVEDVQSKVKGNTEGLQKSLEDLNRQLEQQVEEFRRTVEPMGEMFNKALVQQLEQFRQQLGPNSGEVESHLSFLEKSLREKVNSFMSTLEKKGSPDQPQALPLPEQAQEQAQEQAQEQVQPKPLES
Procedure: as §1, §2, §3, §4

[4] = target: T4, Apolipoprotein C-I (P34928) (Mus musculus, UniProt P34928); experiment: as above; format: binding; conditions: peptide on beads, 5% mouse plasma, 18 hours
T4 construct: incubated with 5% mouse plasma; from tissue; host or cells: mouse plasma (5%)
T4 sequence (P34928 27-88): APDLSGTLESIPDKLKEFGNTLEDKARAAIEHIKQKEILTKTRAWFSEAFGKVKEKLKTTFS
Procedure: as §1, §2, §3, §4

[5] = target: T5, Apolipoprotein C-III (P33622) (Mus musculus, UniProt P33622); experiment: as above; format: binding; conditions: peptide on beads, 5% mouse plasma, 18 hours
T5 construct: incubated with 5% mouse plasma; from tissue; host or cells: mouse plasma (5%)
T5 sequence (P33622 21-99): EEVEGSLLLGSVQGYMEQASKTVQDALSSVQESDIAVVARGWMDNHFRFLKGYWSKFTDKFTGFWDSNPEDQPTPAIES
Procedure: as §1, §2, §3, §4

[6] = target: T6, Apolipoprotein E (P08226) (Mus musculus, UniProt P08226); experiment: as above; format: binding; conditions: peptide on beads, 5% mouse plasma, 18 hours
T6 construct: incubated with 5% mouse plasma; from tissue; host or cells: mouse plasma (5%)
T6 sequence (P08226 19-311): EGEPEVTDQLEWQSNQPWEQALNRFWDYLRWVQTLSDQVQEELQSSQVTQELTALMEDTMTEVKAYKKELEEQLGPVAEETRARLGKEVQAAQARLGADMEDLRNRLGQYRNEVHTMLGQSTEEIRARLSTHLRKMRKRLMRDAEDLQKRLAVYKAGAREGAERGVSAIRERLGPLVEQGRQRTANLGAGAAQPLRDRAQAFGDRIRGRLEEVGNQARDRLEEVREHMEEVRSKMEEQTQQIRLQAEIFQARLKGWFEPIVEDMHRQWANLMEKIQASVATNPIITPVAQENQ
Procedure: as §1, §2, §3, §4

Serum albumin (P07724) = target: T7, Serum albumin (P07724) (Mus musculus, UniProt P07724); experiment: as above; format: binding; conditions: peptide on beads, 5% mouse plasma, 18 hours
T7 construct: incubated with 5% mouse plasma; from tissue; host or cells: mouse plasma (5%)
Procedure: as §1, §2, §3, §4

E. coli ATCC 25922 [7] = format: cell-based
Outline: (§5)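 Broth microdilution after CLSI M07-A10, modified: 2-fold peptide dilutions plus log-phase bacteria diluted to 0.001 OD, incubated overnight at 37° C, absorbance read at 630 nm. Medium effects probed with varied pH, NaCl or human serum in TSB (control pH 7.4), with 10%, 50%, 100% TSB, and with MHB.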

S. aureus USA300 LAC = format: cell-based; conditions: USA300
Outline: as §5

E. coli ATCC 25922 [8] = conditions: LL-37 value taken from Narayana, et al.; cited from earlier work
[9] = test system: Klebsiella pneumonia ATCC 13883; conditions: LL-37 value taken from Narayana, et al.; cited from earlier work
P. aeruginosa PAO1 = conditions: LL-37 value taken from Narayana, et al.; cited from earlier work
[10] = test system: human red blood cells (hRBCs); conditions: 50% hemolysis; LL-37 value taken from Narayana, et al.; cited from earlier work

T2 sequence (P09813 19-102): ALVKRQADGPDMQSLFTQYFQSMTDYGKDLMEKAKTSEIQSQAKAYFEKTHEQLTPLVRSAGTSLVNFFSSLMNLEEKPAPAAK
T7 sequence (P07724 25-608): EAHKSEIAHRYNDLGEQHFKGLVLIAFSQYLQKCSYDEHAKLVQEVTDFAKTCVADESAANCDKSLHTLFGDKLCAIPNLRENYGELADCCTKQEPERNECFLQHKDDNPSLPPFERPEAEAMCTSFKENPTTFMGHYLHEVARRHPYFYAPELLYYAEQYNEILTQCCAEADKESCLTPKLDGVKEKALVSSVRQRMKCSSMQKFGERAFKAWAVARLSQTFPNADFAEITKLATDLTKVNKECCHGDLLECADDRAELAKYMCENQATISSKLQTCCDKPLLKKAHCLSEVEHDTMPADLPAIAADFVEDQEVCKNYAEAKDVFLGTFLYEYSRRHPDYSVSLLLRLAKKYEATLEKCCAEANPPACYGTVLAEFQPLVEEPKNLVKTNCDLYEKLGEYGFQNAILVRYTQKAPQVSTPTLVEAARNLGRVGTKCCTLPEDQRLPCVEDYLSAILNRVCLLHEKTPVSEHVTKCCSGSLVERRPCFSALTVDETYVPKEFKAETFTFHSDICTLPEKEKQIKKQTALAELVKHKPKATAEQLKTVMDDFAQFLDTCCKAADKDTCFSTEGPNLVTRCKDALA

Intensity of bound Apolipoprotein A-I [1] | Intensity of bound Apolipoprotein A-II [2] | Intensity of bound Apolipoprotein A-IV [3] | Intensity of bound Apolipoprotein C-I [4] | Intensity of bound Apolipoprotein C-III [5] | Intensity of bound Apolipoprotein E [6] | Intensity of bound Serum albumin (Serum albumin (P07724)) | Compound | Minimal inhibitory concentration against E. coli, 10% TSB (E. coli ATCC 25922 [7]) [µM] | Minimal inhibitory concentration against E. coli, 50% TSB (E. coli ATCC 25922 [7]) [µM] | Minimal inhibitory concentration against E. coli, 100% MHB (E. coli ATCC 25922 [7]) [µM] | Minimal inhibitory concentration against E. coli, 100% TSB (E. coli ATCC 25922 [7]) [µM] | Minimal inhibitory concentration against S. aureus, 10% TSB (S. aureus USA300 LAC) [µM] | Minimal inhibitory concentration against S. aureus, 50% TSB (S. aureus USA300 LAC) [µM] | Minimal inhibitory concentration against S. aureus, 100% MHB (S. aureus USA300 LAC) [µM] | Minimal inhibitory concentration against S. aureus, 100% TSB (S. aureus USA300 LAC) [µM] | MIC (μM) EC (E. coli ATCC 25922 [8]) [µM] | MIC (μM) KP [9] [µM] | MIC (μM) PA (P. aeruginosa PAO1) [µM] | HC50 [10] [µM]
4.29E+09 | 3.65E+05 | 3.21E+08 | 4.35E+08 | 2.02E+08 | 1.68E+07 | 3.72E+10 | C10-KR8 + linker: C10-KR8 with a cysteine, covalently attached via SM(PEG)4 cross-linker to Dynabeads M-370 amine (CKRIWQRIK; not fully specified (residue 1, N-terminus, C-terminus); also: added N-terminal Cys coupled via SM(PEG)4 to Dynabeads M-370 amine) | – | – | – | – | – | – | – | – | – | – | – | –
– | – | – | – | – | – | – | CC[C@H](C)[C@H](NC(=O)[C@H](CCCCN)NC(=O)[C@H](CCC(=O)O)NC(=O)[C@H](CCCCN)NC(=O)[C@H](CO)NC(=O)[C@H](CCCCN)NC(=O)[C@H](CCCNC(=N)N)NC(=O)[C@H](Cc1ccccc1)NC(=O)[C@H](Cc1ccccc1)NC(=O)[C@H](CC(=O)O)NC(=O)CNC(=O)[C@H](CC(C)C)NC(=O)[C@@H](N)CC(C)C)C(=O)NCC(=O)N[C@@H](CCCCN)C(=O)N[C@@H](CCC(=O)O)C(=O)N[C@@H](Cc1ccccc1)C(=O)N[C@@H](CCCCN)C(=O)N[C@@H](CCCNC(=N)N)C(=O)N[C@H](C(=O)N[C@H](C(=O)N[C@@H](CCC(N)=O)C(=O)N[C@@H](CCCNC(=N)N)C(=O)N[C@H](C(=O)N[C@@H](CCCCN)C(=O)N[C@@H](CC(=O)O)C(=O)N[C@@H](Cc1ccccc1)C(=O)N[C@@H](CC(C)C)C(=O)N[C@@H](CCCNC(=N)N)C(=O)N[C@@H](CC(N)=O)C(=O)N[C@@H](CC(C)C)C(=O)N[C@H](C(=O)N1CCC[C@H]1C(=O)N[C@@H](CCCNC(=N)N)C(=O)N[C@H](C(=O)N[C@@H](CCC(=O)O)C(=O)N[C@@H](CO)C(N)=O)[C@@H](C)O)C(C)C)[C@@H](C)CC)C(C)C)[C@@H](C)CC [LL-37, reference compound] | 1.6 (≈ 7.19 µg/mL) | 6.2 (≈ 27.9 µg/mL) | 6.2 (≈ 27.9 µg/mL) | 6.25 to 12.5 | 50 (≈ 225 µg/mL) | > 50 | >50 | > 50 | 3.1 to 6.2 | 6.2 (≈ 27.9 µg/mL) | >50 | 170
